Results taken from BindingDB's records for doi:10.1016/j.ejmech.2016.02.023 (Rhône-Poulenc Rorer, 2016).

Assay: Antagonist activity at CRTH2 receptor in human eosinophils by ESC assay

Structure (SMILES)	IC50
Cc1c(CC(=O)O)c2ccncn2c1Cc1ccccc1S(=O)(=O)c1ccccc1	12 nM
COc1ccc(S(=O)(=O)c2ccc(F)cc2)c(Cc2c(C)c(CC(=O)O)c3ccncn23)c1	6 nM
